The values below come from patent US8592166B2, “Hypoxia related genes and proteins for the treatment and diagnosis of pregnancy related complications” (Beth Israel Deaconess Medical Center, Inc., priority 2006, dated 2013).

The subject of data set [1] is pregnant mice. As to the kind of experiment: COMT knockout mouse model of pre-eclampsia, administration of 2-ME to pregnant mice. Type of data set: in vivo. The note with it: administration of 2-ME to mice, FIG. 12. The protocol:
FIG. 4 is a schematic of the experimental design for evaluating the role of COMT pre-eclampsia in mice.
FIG. 5 is a graph showing the number of dead embryos on Day 17 of pregnancy in mice with the indicated genotype (WT=wild type; Ko=mice with the COMT gene knocked out; +2me indicates the addition of 2-ME 2 ng/day).

In data set [2] the test system is cytotrophoblasts from the placenta. The note with it: FIG. 1 and WO 2005/110462; cited from earlier work.

Each structure is given as a SMILES string.

Take `COc1cc2c(cc1O)CC[C@@H]1[C@@H]2CC[C@]2(C)[C@@H](O)CC[C@@H]12` [2-ME, 2-methoxyestradiol]: in data set [1], the abnormal development result is “does not alter the litter size or cause abnormal development” and the litter size entry is “does not alter the litter size”. For the same compound, in data set [2], the “expression of HIF-1α” value is “decreases the expression of HIF-1α”; the “expression of VEGF, PlGF, VEGF Receptor 1 (VEGFR1) and sFlt-1” value is “dramatic decrease”.
